# System: individuals with poor sleep, anxiety, worry
# Test: Individual cases treated with the four herb combination
# Assay type: in vivo, human
# Settings: third case; patient history, prostate medication
# Source text: For example, the four herb combination was used to treat three separate individuals, each at a different age with varying problems. The following are cases of how the four herb combination has improved the sleep onset, sleep maintenance, and energy of these individuals. […] They took Codeine and Paracetamol for 3 months, gradually reducing the dose whilst undergoing physiotherapy. The physiotherapy continued for approximately 6 months until the arm was fully functional and pain-free. One year after the original injury, their sleep was still impaired with onset and maintenance insomnia. The person stated that they “dreaded bedtime” and the hours they would be lying awake in bed. They worried during the day, with the worry increasing in the evening. […] In addition, they had changed their lifestyle avoiding commitments in the morning, and not socializing at night as they were worried that the stimulation would further impair their sleep. After 2 weeks on the herbal combination they noticed improvements. At 1 month, they were falling asleep within 20 minutes (versus over an hour before starting the treatment) and was waking up only once per night (versus 3 times or more before starting treatment). […] Their pattern was to readily fall asleep but then wake up 6 times throughout the night which led to urinating half the time, and then having difficulty returning to sleep. […]
smiles,measurement,value
"CCOc1ccccc1OCCN[C@H](C)Cc1ccc(OC)c(S(N)(=O)=O)c1 [Flomax, Tamsulosin]",reducing night-time urination,some improvement
same,waking at nights,not reduced

# Source: patent US11213561B2, “Herbal methods for the improvement of sleep, social interaction, concern or worry” (Rox IP Pty Ltd., priority 2017, dated 2022)
